Measured values from patent publication US6765010B2, “Compositions and methods for enhancing analgesic potency of tramadol and attenuating its adverse side effects” (Pain Therapeutics, Inc., priority 1999, dated 2004).

Experiments:
[1] = system: human subjects/patients with pain following dental surgery; assay: Dental surgery pain study: remedication (rescue medication); assay type: in vivo; conditions: ITT
Source text: (§1) For this randomized, double-blind, active-controlled and placebo-controlled, parallel-group study, human subjects were randomized into one of the following five treatment groups:
(§2) A positive control (T, Group 4) was used to determine the sensitivity of the clinical end points. A negative control (placebo, Group 5) was used to establish the frequency and magnitude of changes in clinical end points that may occur in the absence of an active treatment. A single oral dose of study medication was administered when the subject experienced moderate to severe pain following the surgical extraction of three or four third molars. At least one of the molars was required to be mandibular bony impacted.
The subject was then given a rescue medication and discontinued from study. The subject was encouraged to wait at least until Hour 2 after administration of the study medication before using rescue medication. Subjects remedicating earlier than Hour 1 were not included in the analysis for efficacy. Subjects not remedicating during the eight hours of evaluation received a diary card and asked to record the time of remedication after they left the clinic.
Time to remedication (or rescue medication) was analyzed using the Kaplan-Meier estimate to compute the survival distribution function. The distribution was compared among groups using the Log Rank Test. A subject was considered censored at eight hours if remedication had not occurred. Pairwise comparisons were made using the LIFETEST methodology. Hochberg's procedure was used to control the family-wise type 1 error. Time to Onset of Meaningful Relief (determined by the stopwatch) was similarly analyzed. […] In all the above analyses baseline pain intensity could be used as a stratification factor. […] The sample size was estimated from historical data and from practical considerations rather than from calculation of expected measured differences.

[2] = in vivo, cited from earlier work
[3] = system: human subjects/patients with pain following dental surgery; assay: Dental surgery pain study: time to onset of meaningful pain relief; assay type: in vivo; conditions: ITT
Source text: as §1, §2
A pain assessment was also performed post-treatment. Following dosing, pain intensity and pain relief was recorded at the following times: 30 minutes, 60 minutes and hourly thereafter up to Hour 8 after dosing. All efficacy assessments were recorded by the subject in a diary in response to questioning by the trained observer. […] Pain intensity was measured in response to the question, “How much pain do you have now?” with (1) subject response choices of none, mild, moderate and severe on a categorical scale, and (2) a mark on a 100-mm VAS. […]
Time to remedication (or rescue medication) was analyzed using the Kaplan-Meier estimate to compute the survival distribution function. […]

[4] = system: human subjects/patients with pain following dental surgery; assay: Dental surgery pain study: categorical pain intensity difference (PID, SPID); assay type: in vivo; conditions: LOCF; for Hourly Pain Intensity Difference (PID) score, Mean / Hourly Pain Intensity Difference (PID) score, Median: ITT subjects, PID as numerical variable
[5] = system: α2-adrenoreceptors; conditions: cited from earlier work

## COc1cccc([C@@]2(O)CCCC[C@@H]2CN(C)C)c1.Cl (racemic) [tramadol, (1RS,2RS)-2[(dimethylamino)-methyl]-1-(3-methoxyphenyl)-cyclohexanol HCL]
[1]; Kaplan-Meier
  Time to Remedication up to 8 Hours, Median: 2.48 h
  Time to Remedication up to 24 Hours, Median: 2.48 h
[1]; first section of Table 9
  Percent of Subject who take Remedication up to 8 hours, No: 15 (30.0%) n (%)
  Percent of Subject who take Remedication up to 8 hours, Yes: 35 (70.0%) n (%)
[1]; second section of Table 9
  Percent of Subject who take Remedication up to 8 hours, No: 8 (16.0%) n (%)
  Percent of Subject who take Remedication up to 8 hours, Yes: 42 (84.0%) n (%)
[1]; up to 8 Hours
  Number of Subjects taken Rescue Medication: 35 subjects
[1]; up to 24 Hours
  Number of Subjects taken Rescue Medication: 42 subjects
[2]; iv
  potency relative to morphine: approximately one-tenth
[2]; po
  oral analgesic potency versus morphine: equipotent to oral morphine 30 mg
[3]; Kaplan-Meier
  Time to Onset of Meaningful Pain Relief, Median: 3.85 h
[3]; within 8 hours
  Number of Subjects with Meaningful Pain Relief: 17 subjects
[4]; Hour 0.5
  Hourly Pain Intensity Difference (PID) score, Mean: −0.22
  Hourly Pain Intensity Difference (PID) score, Median: 0
[4]; Hour 1
  Hourly Pain Intensity Difference (PID) score, Mean: −0.30
  Hourly Pain Intensity Difference (PID) score, Median: 0
[4]; Hour 2
  Hourly Pain Intensity Difference (PID) score, Mean: −0.06
  Hourly Pain Intensity Difference (PID) score, Median: 0
[4]; Hour 3
  Hourly Pain Intensity Difference (PID) score, Mean: −0.06
  Hourly Pain Intensity Difference (PID) score, Median: 0
[4]; Hour 4
  Hourly Pain Intensity Difference (PID) score, Mean: 0.06
  Hourly Pain Intensity Difference (PID) score, Median: 0
[4]; Hour 5
  Hourly Pain Intensity Difference (PID) score, Mean: 0.00
  Hourly Pain Intensity Difference (PID) score, Median: 0
[4]; Hour 6
  Hourly Pain Intensity Difference (PID) score, Mean: 0.04
  Hourly Pain Intensity Difference (PID) score, Median: 0
[4]; Hour 7
  Hourly Pain Intensity Difference (PID) score, Mean: −0.02
  Hourly Pain Intensity Difference (PID) score, Median: 0
[4]; Hour 8
  Hourly Pain Intensity Difference (PID) score, Mean: 0.02
  Hourly Pain Intensity Difference (PID) score, Median: 0
[4]; ITT, single oral dose
  SPID up to 4 Hours, Mean: −0.58
  SPID up to 4 Hours, Median: 0
  SPID up to 6 Hours, Mean: −0.54
  SPID up to 6 Hours, Median: 0
  SPID up to 8 Hours, Mean: −0.54
  SPID up to 8 Hours, Median: 0
[5]
  affinity for α2-adrenoreceptors: does not have affinity
